Measured values reported in PubChem BioAssay (NCI).
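Cells were grown in 96-well plates and exposed to each compound for 48 hours at five concentrations; endpoints were interpolated linearly between bracketing concentrations, or set to the highest concentration if not reached. TGI marks complete inhibition of growth.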

What was measured:
Experiment in all cases: inhibition of tumour cell growth, NCI panel, 48 h
MALME-3M melanoma = test system: MALME-3M melanoma
SN12C renal = test system: SN12C renal
T-47D breast = test system: T-47D breast
NCI-H226 lung = test system: NCI-H226 lung
SNB-75 CNS = test system: SNB-75 CNS
A498 renal = test system: A498 renal
KM12 colon = test system: KM12 colon
HS 578T breast = test system: HS 578T breast
MDA-N = test system: MDA-N
SF-295 CNS = test system: SF-295 CNS
ACHN renal = test system: ACHN renal
SF-539 CNS = test system: SF-539 CNS
EKVX NSCLC = test system: EKVX NSCLC
M14 melanoma = test system: M14 melanoma
NCI-H23 lung = test system: NCI-H23 lung
SR leukemia = test system: SR leukemia
NCI-H522 lung = test system: NCI-H522 lung
COLO 205 colon = test system: COLO 205 colon
OVCAR-4 ovarian = test system: OVCAR-4 ovarian
UACC-62 melanoma = test system: UACC-62 melanoma
OVCAR-3 ovarian = test system: OVCAR-3 ovarian
HCT-116 colon = test system: HCT-116 colon
SK-MEL-28 melanoma = test system: SK-MEL-28 melanoma
SNB-19 CNS = test system: SNB-19 CNS
HOP-62 NSCLC = test system: HOP-62 NSCLC
HCT-15 colon = test system: HCT-15 colon
RPMI-8226 leukemia = test system: RPMI-8226 leukemia
SK-MEL-2 melanoma = test system: SK-MEL-2 melanoma
BT-549 breast = test system: BT-549 breast
MDA-MB-435 = test system: MDA-MB-435
U251 CNS = test system: U251 CNS
CCRF-CEM leukemia = test system: CCRF-CEM leukemia
OVCAR-8 ovarian = test system: OVCAR-8 ovarian
SF-268 CNS = test system: SF-268 CNS
MOLT-4 leukemia = test system: MOLT-4 leukemia
A549 NSCLC = test system: A549 NSCLC
UO-31 renal = test system: UO-31 renal
MDA-MB-231 breast = test system: MDA-MB-231 breast
K-562 leukemia = test system: K-562 leukemia
PC-3 prostate = test system: PC-3 prostate
TK-10 renal = test system: TK-10 renal
SK-MEL-5 melanoma = test system: SK-MEL-5 melanoma
HT29 colon = test system: HT29 colon
IGROV1 ovarian = test system: IGROV1 ovarian
RXF 393 renal = test system: RXF 393 renal
SW-620 colon = test system: SW-620 colon
MCF7 breast = test system: MCF7 breast
NCI-H460 lung = test system: NCI-H460 lung
HOP-92 NSCLC = test system: HOP-92 NSCLC
NCI/ADR-RES ovarian = test system: NCI/ADR-RES ovarian
CAKI-1 renal = test system: CAKI-1 renal
UACC-257 melanoma = test system: UACC-257 melanoma
OVCAR-5 ovarian = test system: OVCAR-5 ovarian
DU-145 prostate = test system: DU-145 prostate
786-0 renal = test system: 786-0 renal
HCC-2998 colon = test system: HCC-2998 colon
HL-60(TB) leukemia = test system: HL-60(TB) leukemia
LOX IMVI melanoma = test system: LOX IMVI melanoma

Structure (SMILES): COC(=O)c1cc(C)ccc1/C=C1\Cc2c(C)cc(C)cc2C1=O
- TGI (MALME-3M melanoma): > 100 µM
- TGI (SN12C renal): > 100 µM
- TGI (T-47D breast): > 100 µM
- TGI (NCI-H226 lung): > 82.7 µM
- TGI (SNB-75 CNS): 35.5 µM
- TGI (A498 renal): 76.4 µM
- TGI (KM12 colon): > 100 µM
- TGI (HS 578T breast): 42.9 µM
- TGI (MDA-N): > 100 µM
- TGI (SF-295 CNS): 33.1 µM
- TGI (ACHN renal): > 100 µM
- TGI (SF-539 CNS): 42.3 µM
- TGI (EKVX NSCLC): > 88.4 µM
- TGI (M14 melanoma): > 100 µM
- TGI (NCI-H23 lung): > 72.3 µM
- TGI (SR leukemia): > 100 µM
- TGI (NCI-H522 lung): > 100 µM
- TGI (COLO 205 colon): > 100 µM
- TGI (OVCAR-4 ovarian): > 100 µM
- TGI (UACC-62 melanoma): 65.1 µM
- TGI (OVCAR-3 ovarian): > 100 µM
- TGI (HCT-116 colon): > 100 µM
- TGI (SK-MEL-28 melanoma): > 100 µM
- TGI (SNB-19 CNS): 52.8 µM
- TGI (HOP-62 NSCLC): 32.4 µM
- TGI (HCT-15 colon): > 100 µM
- TGI (RPMI-8226 leukemia): > 100 µM
- TGI (SK-MEL-2 melanoma): 63.7 µM
- TGI (BT-549 breast): > 75.7 µM
- TGI (MDA-MB-435): > 100 µM
- TGI (U251 CNS): 42.9 µM
- TGI (CCRF-CEM leukemia): > 100 µM
- TGI (OVCAR-8 ovarian): > 100 µM
- TGI (SF-268 CNS): 37.1 µM
- TGI (MOLT-4 leukemia): > 100 µM
- TGI (A549 NSCLC): > 100 µM
- TGI (UO-31 renal): > 85.8 µM
- TGI (MDA-MB-231 breast): > 58.4 µM
- TGI (K-562 leukemia): > 100 µM
- TGI (PC-3 prostate): > 100 µM
- TGI (TK-10 renal): 40 µM
- TGI (SK-MEL-5 melanoma): > 100 µM
- TGI (HT29 colon): > 100 µM
- TGI (IGROV1 ovarian): > 100 µM
- TGI (RXF 393 renal): 44.5 µM
- TGI (SW-620 colon): > 100 µM
- TGI (MCF7 breast): > 100 µM
- TGI (NCI-H460 lung): > 100 µM
- TGI (HOP-92 NSCLC): 25.2 µM
- TGI (NCI/ADR-RES ovarian): > 100 µM
- TGI (CAKI-1 renal): > 89.1 µM
- TGI (UACC-257 melanoma): > 30.1 µM
- TGI (OVCAR-5 ovarian): > 100 µM
- TGI (DU-145 prostate): > 100 µM
- TGI (786-0 renal): 40.6 µM
- TGI (HCC-2998 colon): > 100 µM
- TGI (HL-60(TB) leukemia): > 100 µM
- TGI (LOX IMVI melanoma): > 100 µM
